Patent publication US10202427B2, “Esculentin-2CHa peptide and analogues thereof” (UNIVERSITY OF ULSTER, priority 2014, dated 2019)

Tests used:
[1] = test system: Swiss TO mice on high fat diet; test: Chronic in vivo study, twice-daily peptide for 28 days in high fat fed mice; settings: for glucose tolerance: end of 28 day study, glucose 18 mmol/kg bw i.p., overnight fasted; for blood glucose levels during treatment: monitored once in three days for 28 days; for effect on body weight change relative to Exendin-4 / body weight change (Day 0-Day 28): twice daily; for effect on body weight change relative to Exendin-4 / body weight change (Day 0-Day 28) / plasma insulin levels during treatment: 28 days; for body weight change (Day 0-Day 28): vs lean and high fat diet saline control
Description: All animal experiments were carried out in accordance with the UK Animals (Scientific Procedures) Act 1986 and EC Directive 86/609/EEC for animal experiments. For acute in vivo glucose tolerance studies, age-matched groups (n =6) of overnight fasted male NIH Swiss TO mice received an intraperitoneal injection of either glucose alone (32% w/v) or in combination with synthetic peptides (75 nmol/kg body weight). All solutions were administered in 0.9% NaCl (5 ml/kg body weight). Blood glucose concentrations were measured by Bayer Ascencia Blood glucose meter and plasma insulin concentrations were measured by radioimmunoassay as described by Flatt and Bailey (1981). For chronic in vivo studies, male NIH Swiss TO mice were fed high fat diet or standard diet from 8 weeks of age to 27 weeks of age. Peptides were administered twice daily for 28 days. […] Parameters including body weight, energy intake, blood glucose and plasma insulin levels were monitored once in three days for 28 days. Body weight and energy intake were measured by weighing mice and food weights respectively. At the end of the study, to determine glucose tolerance, glucose (18 mmol/kg bw) was injected (i.p) to overnight fasted mice and blood glucose levels were monitored at 0, 15, 30, 60 and 90 minutes. To determine insulin sensitivity, insulin (25 U/kg bw) was injected and blood glucose levels were monitored at 0, 15, 30 and 60 minutes. To determine blood glucose profile over a period of 24 h, blood glucose levels were monitored at 0 (before peptide administration), 2, 4, 8 (before peptide administration) and 24 h (before peptide administration). Lean and fat mass were determined by DXA scanning and terminal blood and tissues were collected for ex vivo studies including pancreatic islet morphology, hormone content, lipid profile and islet function.
In vivo anti-diabetic effects of Exendin-4, Esculentin-2CHa-(GA30), [D-Arg7, D-Lys15,D-Lys23]-esculentin-2CHa-(GA30), and Lys15-octanoate-Esculentin-2CHa-(GA30) were assessed using Swiss TO mice fed high fat diet, with appropriate controls (saline treated mice on standard diet or high fat diet).

NIH Swiss TO mice = test: Acute in vivo glucose tolerance study, i.p. glucose with peptide; settings: peptide 75 nmol/kg bw i.p. with glucose; for plasma insulin concentration after intraperitoneal glucose load: mice
Description: All animal experiments were carried out in accordance with the UK Animals (Scientific Procedures) Act 1986 and EC Directive 86/609/EEC for animal experiments. For acute in vivo glucose tolerance studies, age-matched groups (n =6) of overnight fasted male NIH Swiss TO mice received an intraperitoneal injection of either glucose alone (32% w/v) or in combination with synthetic peptides (75 nmol/kg body weight). All solutions were administered in 0.9% NaCl (5 ml/kg body weight). Blood glucose concentrations were measured by Bayer Ascencia Blood glucose meter and plasma insulin concentrations were measured by radioimmunoassay as described by Flatt and Bailey (1981). For chronic in vivo studies, male NIH Swiss TO mice were fed high fat diet or standard diet from 8 weeks of age to 27 weeks of age. Peptides were administered twice daily for 28 days. No adverse effects were observed following administration of the peptide. Parameters including body weight, energy intake, blood glucose and plasma insulin levels were monitored once in three days for 28 days. Body weight and energy intake were measured by weighing mice and food weights respectively. At the end of the study, to determine glucose tolerance, glucose (18 mmol/kg bw) was injected (i.p) to overnight fasted mice and blood glucose levels were monitored at 0, 15, 30, 60 and 90 minutes. To determine insulin sensitivity, insulin (25 U/kg bw) was injected and blood glucose levels were monitored at 0, 15, 30 and 60 minutes. To determine blood glucose profile over a period of 24 h, blood glucose levels were monitored at 0 (before peptide administration), 2, 4, 8 (before peptide administration) and 24 h (before peptide administration). Lean and fat mass were determined by DXA scanning and terminal blood and tissues were collected for ex vivo studies including pancreatic islet morphology, hormone content, lipid profile and islet function.

BRIN-BD11 cells [2] = test: Insulin release from BRIN-BD11 cells (radioimmunoassay); format: cell-based
Description: BRIN-BD11 cells (Public Health England; Cat. No: 10033003) were grown at 37° C. in an atmosphere of 5% CO2 and 95% air in RPMI-1640 tissue culture medium containing 10% (v/v) fetal calf serum, antibiotics (100 U/ml penicillin, 0.1 mg/ml streptomycin) and 11.1 mM glucose as previously described (Marenah et al, 2004; Conlon et al, 2008; and Mechkarska et al, 2011). The cells were pre-incubated for 40 min at 37° C. in 1.0 ml Krebs Ringer bicarbonate (KRB) buffer, pH 7.4 supplemented with either 5.6 mM or 16.7 mM glucose and 0.1% (w/v) bovine serum albumin (Conlon et al, 2008). Incubations with synthetic peptides (10^−12-3×10^−6 M; n =8) were performed for 20 min at 37° C. using the same buffer. After incubation, aliquots of cell supernatant were removed for insulin radioimmunoassay as described by Flatt and Bailey (1981).

BRIN-BD11 cells [3] = test: Insulin release from BRIN-BD11 cells with known modulators of insulin secretion / extracellular calcium; format: cell-based; settings: 16.7 mM glucose; peptide 10^-6 M
Description: Cellular mechanism of actions of synthetic peptides was investigated by measuring insulin-release from BRIN-DB11 cells in the presence or absence of synthetic peptides (10^−6M) and known modulators of insulin-release. These additional incubations were carried in (a) medium supplemented with 16.7 mM glucose, (b) calcium-free medium supplemented with 5.6 mM glucose, (c) medium containing 5.6 mM glucose and diazoxide ([…]), (d) medium containing 5.6 mM glucose and verapamil ([…]), and (e) medium supplemented with 16.7 mM glucose and 30 mM KCl. Cells were incubated for 20 min at 37° C. and insulin concentrations in cell supernatants were measured by radioimmunoassay (Flatt and Bailey (1981)).
Without being bound by theory, by incubating BRIN-BD11 cells with the known modulators of insulin release in the absence or presence of the peptides and peptide analogues of the present invention (10^-6M), it was shown that the stimulatory effect of the peptides was inhibited in the presence of verapamil (50 μM) and chelation of extracellular calcium but completely abolished in the presence of diazoxide (200 μM). Moreover, insulin secretion increased with the co-incubation of the peptide with IBMX (200 μM), and tolbutamide (200 μM).

BRIN-BD11 cells [4] = test: Intracellular calcium in BRIN-BD11 cells (fluorimetric); format: cell-based; settings: peptide 1 μM, 10 min, vs 5.6 mM glucose alone
Description: (§1) Changes in membrane potential and [Ca^2+]i were determined fluorimetrically using monolayers of BRIN-BD11 cells as previously described by Miguel et al (2004) and Abdel-Wahab et al (2007) using a membrane potential assay kit or a Ca^2+ assay kit (Molecular Devices, Sunnyvale, Calif., USA) according to the manufacturer's recommended protocols. Data were acquired using a FlexStation scanning fluorimeter with integrated fluid transfer workstation (Molecular Devices). The cells were incubated at 37° C. for 10 min with synthetic peptides at a concentration of 1 μM. Control incubations in the presence of 5.6 mM glucose only, 30 mM KCl, and 10 mM alanine were also carried out.

BRIN-BD11 cells [5] = test: Membrane potential in BRIN-BD11 cells (fluorimetric); format: cell-based; settings: peptide 1 μM, 10 min, vs 5.6 mM glucose alone
Description: as §1

[6] = vs high fat diet saline control

| Substance | glucose tolerance [1] | effect on body weight change relative to Exendin-4 [1] | body weight change (Day 0-Day 28) [1] | islet area, beta and alpha cell area [1, 6] | plasma insulin area under curve [1, 6] | plasma insulin concentration after intraperitoneal glucose load (NIH Swiss TO mice) | further results |
| --- | --- | --- | --- | --- | --- | --- | --- |
| [D-Arg7, D-Lys15,D-Lys23]-esculentin-2CHa-(GA30) | improved glucose tolerance, with lowered plasma glucose and insulin levels | comparable to Exendin-4 | significant reduction in body weight | significantly reduced islet area, beta and alpha cell area | markedly lower than high fat diet saline control |  | blood glucose levels during treatment [1]: reduced blood glucose levels from day 21 |
| [Lys20, Lys27, Ser31, Ser37]-Esculentin-2CHa |  |  |  |  |  | significantly increased | acute in vivo effects compared to native peptide (NIH Swiss TO mice): comparable to the effects of native esculentin-CHa |
| Esculentin-2CHa |  |  |  |  |  | increase plasma insulin concentrations | plasma glucose after intraperitoneal glucose load (NIH Swiss TO mice; mice with diet-induced obesity diabetes (so in the source)): significantly reduced plasma glucose concentration; plasma insulin concentration after intraperitoneal glucose load (NIH Swiss TO mice; listed as esculentin-2CHa): significantly increased; insulin release from BRIN-BD11 cells (BRIN-BD11 cells [2]; 5.6 mM glucose, peptides 10^-12-3x10^-6 M, 20 min): dose-dependent stimulatory effects; insulin-release stimulatory effects in the presence of high glucose (BRIN-BD11 cells [3]): retained; intracellular calcium (BRIN-BD11 cells [4]): caused an increase in intracellular calcium; membrane depolarization (BRIN-BD11 cells [5]): significantly enhanced membrane depolarization |
| Lys15-octanoate-Esculentin-2CHa-(GA30) | improved glucose tolerance, with lowered plasma glucose and insulin levels | comparable to Exendin-4 | significant reduction in body weight | significantly reduced islet area, beta and alpha cell area | markedly lower than high fat diet saline control |  | blood glucose levels during treatment [1]: reduced blood glucose levels markedly from day 6; LDL levels [1, 6]: reduced LDL levels; plasma insulin levels during treatment [1, 6]: reduced plasma insulin levels significantly from day 12 |
| [Lys20, Lys27]-Esculentin-2CHa-(GA30) |  |  |  |  |  | significantly increased |  |
| Exendin-4 [reference compound] | improved glucose tolerance, with lowered plasma glucose and insulin levels |  | significant reduction in body weight | significantly reduced islet area, beta and alpha cell area |  |  |  |
| Esculentin-2CHa-(GA30) | improved glucose tolerance, with lowered plasma glucose and insulin levels | comparable to Exendin-4 | significant reduction in body weight | significantly reduced islet area, beta and alpha cell area | markedly lower than high fat diet saline control | significantly increased | plasma insulin levels during treatment [1, 6]: reduced plasma insulin levels significantly from day 12; acute in vivo effects compared to native peptide (NIH Swiss TO mice): comparable to the effects of native esculentin-CHa; insulin-releasing potency compared to native peptide (BRIN-BD11 cells [2]; at lower concentrations): more potent than the native peptide at lower concentrations |
